For one assay, the target named is T1, MMP-9 (Homo sapiens, UniProt P14780).
T1 construct: endogenous in cells; host or cells: HaCaT keratinocytes (conditioned medium)
In words: Zymogram assay, MMP-9 in HaCaT cell conditioned media. It counts as biochemical. The conditions noted are these: keratinocyte-conditioned media; 50 nM developing phase and 500 nM 48 h, Fig. 4B and 4D.

The subject of a further assay is NHF cells. In words: Gelatin degradation assay (fluorescent gelatin, NHF cells). The conditions noted are these: 1 μM, four days, fluorescent-gelatin-coated plates. In kind it is cell-based, human. Here is the method:
Gelatin digestion was assessed using the QCM™ Gelatin Invadopodia Assay (#ECM670) (Sigma-Aldrich, USA). Plates were first coated with poly-L-lysine, activated with glutaraldehyde, and then coated with fluorescein-labelled gelatin. NHF cells were seeded onto the fluorescent gelatin-coated plates and incubated for 4 days. After incubation, the cells were fixed with formaldehyde and stained with DAPI for normalization based on cell number. Fluorescent gelatin levels were measured by detecting fluorescent intensity at an excitation wavelength of 492 nm and an emission wavelength of 518 nm using a Bio Tek Synergy H1 fluorescence reader (Agilent Technologies, USA). The residual gelatin (RG) was calculated by subtracting the fluorescent value of the wells with seeded cells from the values of wells without cells. This was normalized using the DAPI fluorescence to account for cell numbers per well. Gelatin degradation (%) was determined as: Gelatin degradation = (RGinhibitor/RGcontrol) × 100.

A further assay has as its target T2, MMP-2 (Homo sapiens, UniProt P08253).
T2 construct: purchased Abcam ab139446
Kind of assay: In vitro MMP-2 inhibition assay (Abcam kit ab139446). It counts as biochemical. Conditions: for Selectivity of inhibition, MMP-2 over MMP-1 (in words): tested at 500 nM for MMP-1 and 50 nM for MMP-2; for MMP-2 inhibition (in words): 50 nM, Fig. 3A; for IC50: apparent IC50, concentration-dependent inhibition, Fig. 2B. Here is the method: (§1) Test inhibitors were incubated with MMP enzymes and assay buffer at 37 °C for 30 min. Enzyme reaction was initiated by adding substrate, and MMP activity was measured by monitoring optical density (OD) at 412 nm for 20 min at 1-min intervals. The residual activity (%) was calculated as: residual activity = (Vinhibitor/Vcontrol) × 100. The reaction velocity (V) in OD/min were determined by the slope of a line fit to the linear portion of the measured values.

For the next assay, the target named is T3, MMP-1 (Homo sapiens, UniProt P03956).
T3 construct: purchased Abcam ab139443
T3 sequence (P03956 100-269 limits assumed): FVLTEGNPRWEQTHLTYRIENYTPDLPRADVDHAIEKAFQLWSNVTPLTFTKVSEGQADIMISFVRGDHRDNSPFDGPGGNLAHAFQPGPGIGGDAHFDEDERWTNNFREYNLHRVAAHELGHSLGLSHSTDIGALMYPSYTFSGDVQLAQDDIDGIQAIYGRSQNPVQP
In words: In vitro MMP-1 inhibition assay (Abcam kit ab139443). In kind it is biochemical. The conditions noted are these: for MMP-1 inhibition (in words): 500 nM, Fig. 3A. Here is the method: as §1

“And” between values parts separate entries of the source, which are not always exact repeats. Equal values may be shown once. “Also recorded” adds a separate entry of the source.

T1 sequence (P14780 94-707): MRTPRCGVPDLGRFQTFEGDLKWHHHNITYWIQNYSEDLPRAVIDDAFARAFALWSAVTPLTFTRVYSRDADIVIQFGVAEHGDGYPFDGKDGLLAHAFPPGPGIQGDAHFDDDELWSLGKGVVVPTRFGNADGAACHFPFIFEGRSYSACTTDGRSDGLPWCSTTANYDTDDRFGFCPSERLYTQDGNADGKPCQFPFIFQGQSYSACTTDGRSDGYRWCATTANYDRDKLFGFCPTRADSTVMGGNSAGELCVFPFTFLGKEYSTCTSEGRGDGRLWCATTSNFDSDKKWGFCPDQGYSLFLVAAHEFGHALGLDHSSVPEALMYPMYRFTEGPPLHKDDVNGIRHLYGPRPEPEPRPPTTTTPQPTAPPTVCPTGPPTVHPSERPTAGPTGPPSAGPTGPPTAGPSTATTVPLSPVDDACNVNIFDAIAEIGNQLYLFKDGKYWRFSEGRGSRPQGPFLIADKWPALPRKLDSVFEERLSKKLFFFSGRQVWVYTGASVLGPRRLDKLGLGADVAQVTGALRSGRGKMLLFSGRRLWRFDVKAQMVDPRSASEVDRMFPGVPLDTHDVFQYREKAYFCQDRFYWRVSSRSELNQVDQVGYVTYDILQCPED
T2 sequence (P08253 110-465 limits assumed): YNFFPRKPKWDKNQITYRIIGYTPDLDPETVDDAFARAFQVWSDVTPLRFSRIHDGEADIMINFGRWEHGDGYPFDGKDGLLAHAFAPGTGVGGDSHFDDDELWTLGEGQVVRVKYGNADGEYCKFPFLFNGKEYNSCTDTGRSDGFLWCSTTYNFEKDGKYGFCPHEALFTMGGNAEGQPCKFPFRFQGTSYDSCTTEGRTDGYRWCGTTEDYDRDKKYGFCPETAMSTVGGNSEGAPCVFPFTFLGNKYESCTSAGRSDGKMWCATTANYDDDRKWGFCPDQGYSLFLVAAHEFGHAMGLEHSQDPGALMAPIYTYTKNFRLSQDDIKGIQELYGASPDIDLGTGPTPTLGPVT

In the case of `CC(=NO)c1ccc(S(=O)(=O)N2CCCCC2C(=O)NO)cc1` (centres unmarked) [Compound 4an, N-hydroxy-1-((4-(1-(hydroxyimino)ethyl)phenyl)sulfonyl)piperidine-2-carboxamide], on MMP-9, the “MMP-9 inhibition, zymogram (in words)” value is “effectively inhibited both MMP-2 and MMP-9”. Also, the “Gelatin degradation per cell (in words)” value in the assay with NHF cells is listed as “statistically significant reductions”.

Consider `Cc1ccc(S(=O)(=O)N2CCCCC2C(=O)NO)cc1` (centres unmarked) [Compound 1aj, N-hydroxy-1-tosylpiperidine-2-carboxamide], for which the “Selectivity of inhibition, MMP-2 over MMP-1 (in words)” value (“Selectivity of inhibition” for short) on MMP-2 is “selective inhibition of MMP-2”.

As for `CCCCOc1ccc(S(=O)(=O)NC(Cc2ccccc2)C(=O)NO)cc1` (centres unmarked) [Compound 1p, 2-((4-butoxyphenyl)sulfonamido)-N-hydroxy-3-phenylpropanamide], at MMP-2, the “MMP-2 inhibition (in words)” value is recorded as “lower inhibitory activity against MMP-2”.

For `O=C(NO)C1CCCCN1S(=O)(=O)c1ccccc1` (centres unmarked) [Compound 1ac, N-hydroxy-1-(phenylsulfonyl)piperidine-2-carboxamide], at MMP-1, the “MMP-1 inhibition (in words)” value is given as “maintained MMP-1 inhibition”.

Take `O=C(NO)C(Cc1ccccc1)NS(=O)(=O)c1ccc(-c2ccccc2)cc1` (centres unmarked) [Compound 1n, 2-([1,1'-biphenyl]-4-sulfonamido)-N-hydroxy-3-phenylpropanamide]: at MMP-2, the “MMP-2 inhibition (in words)” value is given as “lower inhibitory activity against MMP-2”.

Broadly, the IC50 is the concentration needed to halve the response being measured. Consider `CCCCOc1ccc(S(=O)(=O)N2CCCC2C(=O)NO)cc1` (centres unmarked) [Compound 1v, 1-((4-butoxyphenyl)sulfonyl)-N-hydroxypyrrolidine-2-carboxamide], for which, at MMP-2, the IC50 stood at 32.6 nM and the “Selectivity of inhibition” value is reported as “selectively inhibited MMP-2 over MMP-1”.

Take `O=C(NO)C1CCCN1S(=O)(=O)c1ccc(-c2ccccc2)cc1` (centres unmarked) [Compound 1t, 1-([1,1'-biphenyl]-4-ylsulfonyl)-N-hydroxypyrrolidine-2-carboxamide]: at MMP-2, the IC50 is 18.9 nM and the “Selectivity of inhibition” value is “selectively inhibited MMP-2 over MMP-1”. Moreover, at MMP-1, the “MMP-1 inhibition (in words)” value is on record as “weaker MMP-1 inhibition”.

With `CCCCOc1ccc(S(=O)(=O)NC(CC(C)C)C(=O)NO)cc1` (centres unmarked) [Compound 1j, 2-((4-butoxyphenyl)sulfonamido)-N-hydroxy-4-methylpentanamide], on MMP-2, the IC50 was 7.8 nM and < 10 nM; the “Selectivity of inhibition” value is “selectively inhibited MMP-2 over MMP-1; also recorded: strong selectivity for MMP-2”.

In the case of `CCCCOc1ccc(S(=O)(=O)N2CCCCC2C(=O)NO)cc1` (centres unmarked) [Compound 1af, 1-((4-butoxyphenyl)sulfonyl)-N-hydroxypiperidine-2-carboxamide], at MMP-9, the “MMP-9 inhibition, zymogram (in words)” value is “effectively inhibited both MMP-2 and MMP-9”. Also, in the assay with NHF cells, the “Gelatin degradation per cell (in words)” value is recorded as “statistically significant reductions”.

On to `CCCCOc1ccc(S(=O)(=O)NC(C(=O)NO)C(C)C)cc1` (centres unmarked) [Compound 1d, 2-((4-butoxyphenyl)sulfonamido)-N-hydroxy-3-methylbutanamide], for which, at MMP-2, the IC50 is 8.1 nM and < 10 nM; the “Selectivity of inhibition” value is on record as “selectively inhibited MMP-2 over MMP-1; also recorded: strong selectivity for MMP-2”.

Turning to `CC(C)C(NS(=O)(=O)c1ccc(-c2ccccc2)cc1)C(=O)NO` (centres unmarked) [Compound 1b, 2-([1,1'-biphenyl]-4-sulfonamido)-N-hydroxy-3-methylbutanamide], at MMP-2, the IC50 is 5.1 nM and < 10 nM; the “Selectivity of inhibition” value is recorded as “selectively inhibited MMP-2 over MMP-1”. For the same molecule, the “MMP-1 inhibition (in words)” value at MMP-1 was “weak MMP-1 inhibition”. On MMP-1 (apparent IC50, concentration-dependent inhibition, Fig. 2B), the IC50 came out at 188 nM.

With `O=C(NO)C1CCCCN1S(=O)(=O)c1ccc(-c2ccccc2)cc1` (centres unmarked) [Compound 1ad, 1-([1,1'-biphenyl]-4-ylsulfonyl)-N-hydroxypiperidine-2-carboxamide], the “MMP-9 inhibition, zymogram (in words)” value on MMP-9 was “effectively inhibited both MMP-2 and MMP-9”. For the same molecule, the “Gelatin degradation per cell (in words)” value in the assay on NHF cells is recorded as “statistically significant reductions”.
